Legend:
[1] = tested on: IP-Implanted L1210 Leukemia; assay: Dose-response against IP-implanted L1210 leukemia, IP treatment Days 1, 5 and 9, 30-day test (Table 2); assay type: in vivo, CD2Fl male mice
Protocol: (§1) Biological properties of the compounds of the present invention were determined following the protocol described in Cancer Chemotherapy Reports, Vol. 3, No. 3, 1972 which report is incorporated herein by reference.
(§2) This experiment (A8-00005 3LE31) was conducted at the Southern Research Institute, Birmingham, Ala. under the supervision of Dr. Daniel Griswold. The protocols were the same as those published previously (Geran et al., Cancer Chemotherapy Reports 3: No. 2, 1972 [Attachment 11]). 10^5 cells were implanted intraperitoneally in CD2Fl male mice on Day 0. Drug treatments were given intraperitoneally as single injections at the doses indicated on Days 1, 5 and 9 after tumor implantation. The diluent was saline except for NSC-271674 where 5% sodium bicarbonate was used. All drugs were prepared fresh on the day of injection, and all were administered in solution. Median survival times for both control and drug-treated mice were determined and expressed as a percentage (% T/C). Body weights were determined on Day 5 and expressed as a weight difference (body weight of the drug-treated animals minus that of the control animals in grams) (T-C). The diluent control animals lived a median of 8.4 days and gained 1.9 grams by Day 5 in this experiment. All animals, including Day 30 survivors, were used in the calculation of median survival times. The log10 change in tumor burden refers to the net log change in viable tumor cell population at the end of therapy (Rx) as compared to the start of therapy; e.g., a […] means that there was a […] and a 3 log change means there was a 1000-fold increase in tumor burden at the end of therapy. The tumor burden at the start of therapy was about 6.1×10^5 cells in this experiment.

IP L1210 = assay: Activity against IP-implanted L1210 leukemia sensitive to cisplatin, 60 day test (Table 4); assay type: in vivo, Female CD2Fl mice
Protocol: as §1
Other known mechanisms of resistance for other classes of agents, such as gene amplification or target enzyme change or amplication, also need to be explored. The experiments summarized in Table 3 were conducted at the same time against both sublines using the same drug preparations. […] These experiments were repeated in a second laboratory as documented in Table 4. However, in these experiments the animals were held for 60 rather than 30 days to evaluate whether or not long-term survivors are produced after drug treatment in a more challenging setting.
as §2
These experiments (23-00081 3LE31 and 23-00003 3DP3l) were conducted concurrently at the Mason Research Institute, Worcester, MA under the supervision of Dr. William Cobb. See Table 4 for experimental details. The diluent control animals bearing L1210 leukemia lived a median of 8.3 days and gained 1.6 grams by Day 5. […] Female CD2Fl mice were used for these experiments.

[2] = tested on: SC Implanted L1210 Leukemia; assay: Activity against SC implanted L1210 leukemia following intravenous administration, once daily Days 1-5 (Table 5); assay type: in vivo, CD2Fl male mice; conditions: for HNTD (highest nontoxic dose; animal weight difference ≥ -4.0 grams) / Optimal Dose: IV once daily Days 1-5
Protocol: as §1
In another type of experiment the same platinum complexes were directly compared against the SC implanted L1210 following intravenous administration (Table 5).
This experiment (A8-00004 3LE32) was conducted at the Southern Research Institute, Birmingham, Ala. under the supervision of Dr. Daniel Griswold. The protocols were the same as those published previously (Attachment 11). 10^6 cells were implanted subcutaneously in CD2Fl male mice on Day 0. Drug treatments were given intravenously once daily at the doses indicated on Days 1-5 after tumor implantation. The dosage range tested included the highest and lowest doses indicated in the Table as well as intermediate values which were determined by multiplying each dose in turn by 0.5 starting with the highest dose. The diluent was saline except for NSC-271674 for which 5% sodium bicarbonate was used. All drugs were prepared fresh on the day of injection, and all were administered in solution. Median survival times for both control and drug-treated mice were determined and expressed as a percentage (% T/C). Body weights were determined on Day 5 and expressed as a weight difference (body weight of the drug-treated animals minus that of the control animals in grams) (T-C).

In the case of `N[C@@H]1CCCC[C@H]1N.O=C([O-])c1ccc(C(=O)[O-])c(C(=O)[O-])c1.[H+].[Pt+2]` [Carboxyphthalato Platinum, carboxyphthalatocyclohexanediamine platinum (II), reference compound], the “30-Day Survivors/Total” value ([1]; 3.13 mg/kg/dose IP) is reported as 0/6, the “Approx. Log10 Change in Tumor Burden at End of Rx” value (from here on “Approx. Log10 Change”) ([1]; 3.13 mg/kg/dose IP) is reported as ~2.5 log10 and the “Body Weight Difference” value ([1]; 3.13 mg/kg/dose IP) is reported as -0.5 Grams. For the same molecule, the “Median % T/C” value ([1]; 3.13 mg/kg/dose IP) was 146%, the “30-Day Survivors/Total” value ([1]; 6.25 mg/kg/dose IP) was 0/6 and the “Approx. Log10 Change” value ([1]; 6.25 mg/kg/dose IP) was ~2.3 log10. The “Body Weight Difference” value ([1]; 6.25 mg/kg/dose IP) was -0.8 Grams, the “Median % T/C” value ([1]; 6.25 mg/kg/dose IP) was 154% and the “30-Day Survivors/Total” value ([1]; 12.5 mg/kg/dose IP) was 2/6. The “Approx. Log10 Change” value ([1]; 12.5 mg/kg/dose IP) was -5.7 log10, the “Body Weight Difference” value ([1]; 12.5 mg/kg/dose IP) was -2.1 Grams and the “Median % T/C” value ([1]; 12.5 mg/kg/dose IP) was 309%. For the same molecule, the “30-Day Survivors/Total” value ([1]; 25 mg/kg/dose IP) was 4/6, the “Approx. Log10 Change” value ([1]; 25 mg/kg/dose IP) was -5.7 log10 and the “Body Weight Difference” value ([1]; 25 mg/kg/dose IP) was -1.5 Grams. The “Median % T/C” value ([1]; 25 mg/kg/dose IP) was 357%, the “30-Day Survivors/Total” value ([1]; 50 mg/kg/dose IP) was 2/6 and the “Approx. Log10 Change” value ([1]; 50 mg/kg/dose IP) was -5.7 log10. For the same molecule, the “Body Weight Difference” value ([1]; 50 mg/kg/dose IP) was -5.0 Grams, the “Median % T/C” value ([1]; 50 mg/kg/dose IP) was 345% and the “Body Weight Difference” value ([1]; 50 mg/kg/dose IP, listed as carboxyphthalato cyclohexanediamine platinum (II)) was “more than -4 Grams”. The “60 Day Survivors/Total” value (IP L1210; 3.13 mg/kg/dose) was 2/10, the “Body Weight Difference” value (IP L1210; 3.13 mg/kg/dose) was -2.3 Grams and the “Median % T/C” value (IP L1210; 3.13 mg/kg/dose) was 280%. For the same molecule, the “60 Day Survivors/Total” value (IP L1210; 6.25 mg/kg/dose) was 2/10, the “Body Weight Difference” value (IP L1210; 6.25 mg/kg/dose) was -3.5 Grams and the “Median % T/C” value (IP L1210; 6.25 mg/kg/dose) was 313%. The “60 Day Survivors/Total” value (IP L1210; 12.5 mg/kg/dose) was 0/10, the “Body Weight Difference” value (IP L1210; 12.5 mg/kg/dose) was -6.0 Grams and the “Median % T/C” value (IP L1210; 12.5 mg/kg/dose) was “Toxic”. The “60 Day Survivors/Total” value (IP L1210; 25 mg/kg/dose) was 0/10, the “Median % T/C” value (IP L1210; 25 mg/kg/dose) was “Toxic” and the “60 Day Survivors/Total” value (IP L1210; 50 mg/kg/dose) was 0/10. For the same molecule, the “Median % T/C” value (IP L1210; 50 mg/kg/dose) was “Toxic”, the “Body Weight Difference” value ([2]; 6.25 mg/kg/inj IV) was -2.6 Grams and the “Median % T/C” value ([2]; 6.25 mg/kg/inj IV) was 124%. For the same molecule, the “Median Survival Time” value ([2]; 6.25 mg/kg/inj IV) was 12.8 days, the “Body Weight Difference” value ([2]; 12.5 mg/kg/inj IV) was -6.1 Grams and the “Median % T/C” value ([2]; 12.5 mg/kg/inj IV) was 165%. For the same molecule, the “Median Survival Time” value ([2]; 12.5 mg/kg/inj IV) was 17.0 days, the “HNTD (highest nontoxic dose; animal weight difference ≥ -4.0 grams)” value [2] was 6.25 mg/kg/inj and the “Optimal Dose” value [2] was 12.5 mg/kg/inj.
For `[Cl][Pt-2]1([Cl])([Cl])([Cl])[NH2+][C@H]2CCCC[C@@H]2[NH2+]1` [trans (d), (1S, 2S)-Tetrachloro-trans-1,2-cyclohexanediamine platinum (IV)], the “30-Day Survivors/Total” value ([1]; 1 mg/kg/dose IP) was 0/6, the “Body Weight Difference” value ([1]; 1 mg/kg/dose IP) was -0.3 Grams and the “Median % T/C” value ([1]; 1 mg/kg/dose IP) was 119%. For the same molecule, the “30-Day Survivors/Total” value ([1]; 2 mg/kg/dose IP) was 0/6, the “Approx. Log10 Change” value ([1]; 2 mg/kg/dose IP) was ~2.7 log10 and the “Body Weight Difference” value ([1]; 2 mg/kg/dose IP) was -0.6 Grams. For the same molecule, the “Median % T/C” value ([1]; 2 mg/kg/dose IP) was 134%, the “30-Day Survivors/Total” value ([1]; 4 mg/kg/dose IP) was 1/6 and the “Approx. Log10 Change” value ([1]; 4 mg/kg/dose IP) was ~-1.1 log10. For the same molecule, the “Body Weight Difference” value ([1]; 4 mg/kg/dose IP) was -0.9 Grams, the “Median % T/C” value ([1]; 4 mg/kg/dose IP) was 211% and the “30-Day Survivors/Total” value ([1]; 8 mg/kg/dose IP) was 3/6. For the same molecule, the “Approx. Log10 Change” value ([1]; 8 mg/kg/dose IP) was ~-5.7 log10, the “Body Weight Difference” value ([1]; 8 mg/kg/dose IP) was -1.7 Grams and the “Median % T/C” value ([1]; 8 mg/kg/dose IP) was 357%. The “Body Weight Difference” value ([1]; 8 mg/kg/dose IP, listed as trans d) was “less than -4 Grams”, the “30-Day Survivors/Total” value ([1]; 16 mg/kg/dose IP) was 1/6 and the “Approx. Log10 Change” value ([1]; 16 mg/kg/dose IP) was ~-2.0 log10. For the same molecule, the “Body Weight Difference” value ([1]; 16 mg/kg/dose IP) was -4.9 Grams, the “Median % T/C” value ([1]; 16 mg/kg/dose IP) was 226% and the “Optimal dose (dose producing best therapeutic response)” value ([1]; day 1, 5 and 9 schedule) was 8 mg/kg/injection. For the same molecule, the “60 Day Survivors/Total” value (IP L1210; 1 mg/kg/dose) was 0/10, the “Body Weight Difference” value (IP L1210; 1 mg/kg/dose) was -0.6 Grams and the “Median % T/C” value (IP L1210; 1 mg/kg/dose) was 144%. The “60 Day Survivors/Total” value (IP L1210; 2 mg/kg/dose) was 3/10, the “Body Weight Difference” value (IP L1210; 2 mg/kg/dose) was -1.0 Grams and the “Median % T/C” value (IP L1210; 2 mg/kg/dose) was 216%. The “60 Day Survivors/Total” value (IP L1210; 4 mg/kg/dose) was 0/10, the “Body Weight Difference” value (IP L1210; 4 mg/kg/dose) was -1.2 Grams and the “Median % T/C” value (IP L1210; 4 mg/kg/dose) was 202%. For the same molecule, the “60 Day Survivors/Total” value (IP L1210; 8 mg/kg/dose) was 3/10, the “Body Weight Difference” value (IP L1210; 8 mg/kg/dose) was -3.1 Grams and the “Median % T/C” value (IP L1210; 8 mg/kg/dose) was 301%. The “60 Day Survivors/Total” value (IP L1210; 16 mg/kg/dose) was 0/10, the “Body Weight Difference” value (IP L1210; 16 mg/kg/dose) was -7.0 Grams and the “Median % T/C” value (IP L1210; 16 mg/kg/dose) was “Toxic”. The “Body Weight Difference” value ([2]; 5 mg/kg/inj IV) was -6.4 Grams, the “Median % T/C” value ([2]; 5 mg/kg/inj IV) was 172% and the “Median Survival Time” value ([2]; 5 mg/kg/inj IV) was 17.8 days. The “HNTD (highest nontoxic dose; animal weight difference ≥ -4.0 grams)” value [2] was 2.5 mg/kg/inj and the “Optimal Dose” value [2] was 5.0 mg/kg/inj.
